Test results reported in US10597388B2, “Pyridazinone herbicides” (FMC CORPORATION, priority 2014, dated 2020).

Experiments:
Assay in all cases: Test D controlled growth environment herbicide test, pre- and postemergence
Type in all cases: in vivo
[1] = system: chamomile (scentless chamomile, Matricaria inodora)
Outline: (§1)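 Pre-emergence: seeds sown in silt loam soil were sprayed with compound in a non-phytotoxic solvent mix containing surfactant. Post-emergence: plants at 2 to 18 cm (1- to 4-leaf stage) in peat moss/vermiculite medium got the same formulation. Visual 0–100 rating versus controls after 14 to 21 d.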

[2] = system: bluegrass (annual bluegrass, Poa annua)
Outline: as §1

[3] = system: blackgrass (Alopecurus myosuroides)
Outline: as §1

[4] = system: pigweed (Amaranthus retroflexus)
Outline: as §1

[5] = system: bromegrass, downy (downy bromegrass, Bromus tectorum)
Outline: as §1

[6] = system: barley, winter (winter barley, Hordeum vulgare)
Outline: as §1

[7] = system: chickweed (common chickweed, Stellaria media)
Outline: as §1

[8] = system: wheat, winter (winter wheat, Triticum aestivum)
Outline: as §1

[9] = system: kochia (Kochia scoparia)
Outline: as §1

[10] = system: lambsquarters (Chenopodium album)
Outline: as §1

[11] = system: foxtail, green (green foxtail, Setaria viridis)
Outline: as §1

[12] = system: galium (catchweed bedstraw, Galium aparine)
Outline: as §1

[13] = system: field violet (Viola arvensis)
Outline: as §1

[14] = Postemergence, 31 g ai/ha, scale 0 to 100 (0 no effect, 100 complete control)
[15] = Postemergence, 125 g ai/ha, visual rating on scale 0 (no effect) to 100 (complete control), 14 to 21 d
[16] = Postemergence, 250 g ai/ha, scale 0 to 100 (0 no effect, 100 complete control)
[17] = postemergence, 62 g ai/ha, scale 0 to 100, 0 no effect, 100 complete control
[18] = Preemergence, 62 g ai/ha, scale 0 to 100 (0 no effect, 100 complete control)
[19] = Preemergence, 125 g ai/ha, scale 0 to 100 (0 no effect, 100 complete control)
[20] = Preemergence, 250 g ai/ha, scale 0 to 100, 0 no effect, 100 complete control

Cc1cc2ccccc2c(-c2c(O)c(C)nn(C)c2=O)c1C [Compound 34]
Chamomile plant response rating [1, 14]: 75
Plant response rating, Chamomile [1, 15]: 100
Plant response rating, Chamomile [1, 16]: 100
Plant response rating, Chamomile [1, 17]: 80
Bluegrass plant response rating [2, 14]: 10
Plant response rating, Bluegrass [2, 15]: 15
Plant response rating, Bluegrass [2, 16]: 20
Plant response rating (scale of 0 to 100), Bluegrass ([2]; Preemergence, 31 g ai/ha): 0
Plant response rating, Bluegrass [2, 18]: 25
Plant response rating, Bluegrass [2, 19]: 50
Bluegrass plant response rating [2, 20]: 60
Plant response rating, Bluegrass [2, 17]: 15
Blackgrass plant response rating [3, 14]: 25
Plant response rating, Blackgrass [3, 15]: 70
Plant response rating, Blackgrass [3, 16]: 75
Plant response rating (scale of 0 to 100), Blackgrass ([3]; Preemergence, 31 g ai/ha): 15
Plant response rating, Blackgrass [3, 18]: 20
Plant response rating, Blackgrass [3, 19]: 40
Blackgrass plant response rating [3, 20]: 65
Plant response rating, Blackgrass [3, 17]: 40
Pigweed plant response rating [4, 14]: 100
Plant response rating, Pigweed [4, 15]: 100
Plant response rating, Pigweed [4, 16]: 100
Plant response rating (scale of 0 to 100), Pigweed ([4]; Preemergence, 31 g ai/ha): 50
Plant response rating, Pigweed [4, 18]: 95
Plant response rating, Pigweed [4, 19]: 100
Plant response rating, Pigweed [4, 20]: 100
Plant response rating, Pigweed [4, 17]: 100
Bromegrass, Downy plant response rating [5, 14]: 20
Plant response rating, Bromegrass, Downy [5, 15]: 40
Plant response rating, Bromegrass, Downy [5, 16]: 70
Plant response rating (scale of 0 to 100), Bromegrass, Downy ([5]; Preemergence, 31 g ai/ha): 0
Plant response rating, Bromegrass, Downy [5, 18]: 50
Plant response rating, Bromegrass, Downy [5, 19]: 50
Plant response rating, Bromegrass, Downy [5, 20]: 80
Plant response rating, Bromegrass, Downy [5, 17]: 30
Plant response rating, Barley, Winter [6, 14]: 0
Plant response rating, Barley, Winter [6, 15]: 0
Plant response rating, Barley, Winter [6, 16]: 20
Plant response rating (scale of 0 to 100), Barley, Winter ([6]; Preemergence, 31 g ai/ha): 0
Plant response rating, Barley, Winter [6, 18]: 0
Plant response rating, Barley, Winter [6, 19]: 0
Barley, Winter plant response rating [6, 20]: 65
Plant response rating, Barley, Winter [6, 17]: 0
Chickweed plant response rating [7, 14]: 95
Plant response rating, Chickweed [7, 15]: 100
Plant response rating, Chickweed [7, 16]: 100
Plant response rating (scale of 0 to 100), Chickweed ([7]; Preemergence, 31 g ai/ha): 85
Plant response rating, Chickweed [7, 18]: 95
Plant response rating, Chickweed [7, 19]: 100
Plant response rating, Chickweed [7, 20]: 100
Plant response rating, Chickweed [7, 17]: 100
Wheat, Winter plant response rating [8, 14]: 5
Plant response rating, Wheat, Winter [8, 15]: 15
Plant response rating, Wheat, Winter [8, 16]: 25
Plant response rating (scale of 0 to 100), Wheat, Winter ([8]; Preemergence, 31 g ai/ha): 0
Plant response rating, Wheat, Winter [8, 18]: 0
Plant response rating, Wheat, Winter [8, 19]: 25
Plant response rating, Wheat, Winter [8, 20]: 40
Plant response rating, Wheat, Winter [8, 17]: 25
Kochia plant response rating [9, 14]: 60
Plant response rating, Kochia [9, 15]: 85
Plant response rating, Kochia [9, 16]: 95
Plant response rating (scale of 0 to 100), Kochia ([9]; Preemergence, 31 g ai/ha): 25
Plant response rating, Kochia [9, 18]: 10
Plant response rating, Kochia [9, 19]: 15
Plant response rating, Kochia [9, 20]: 50
Plant response rating, Kochia [9, 17]: 85
Lambsquarters plant response rating [10, 14]: 90
Plant response rating, Lambsquarters [10, 15]: 100
Plant response rating, Lambsquarters [10, 16]: 100
Plant response rating (scale of 0 to 100), Lambsquarters ([10]; Preemergence, 31 g ai/ha): 60
Plant response rating, Lambsquarters [10, 18]: 60
Plant response rating, Lambsquarters [10, 19]: 95
Plant response rating, Lambsquarters [10, 20]: 95
Plant response rating, Lambsquarters [10, 17]: 95
Foxtail, Green plant response rating [11, 14]: 40
Plant response rating, Foxtail, Green [11, 15]: 55
Plant response rating, Foxtail, Green [11, 16]: 70
Plant response rating (scale of 0 to 100), Foxtail, Green ([11]; Preemergence, 31 g ai/ha): 55
Plant response rating, Foxtail, Green [11, 18]: 60
Plant response rating, Foxtail, Green [11, 19]: 60
Plant response rating, Foxtail, Green [11, 20]: 75
Plant response rating, Foxtail, Green [11, 17]: 45
Galium plant response rating [12, 14]: 95
Plant response rating, Galium [12, 15]: 100
Plant response rating, Galium [12, 16]: 100
Plant response rating (scale of 0 to 100), Galium ([12]; Preemergence, 31 g ai/ha): 0
Plant response rating, Galium [12, 18]: 35
Plant response rating, Galium [12, 19]: 80
Plant response rating, Galium [12, 20]: 85
Plant response rating, Galium [12, 17]: 100
Field Violet plant response rating [13, 14]: 75
Plant response rating, Field Violet [13, 15]: 95
Plant response rating, Field Violet [13, 16]: 95
Plant response rating (scale of 0 to 100), Field Violet ([13]; Preemergence, 31 g ai/ha): 15
Plant response rating, Field Violet [13, 18]: 25
Plant response rating, Field Violet [13, 19]: 75
Plant response rating, Field Violet [13, 20]: 95
Plant response rating, Field Violet [13, 17]: 100
